According to patent EP0540859B1, “Anthracycline prodrugs” (Bristol-Myers Squibb Company, priority 1987, dated 1989):
pIC50: −log10 of the molar value.

Assays:
H2981 tumor cells = test: 3H-thymidine uptake assay on H2981 cells, PVA conjugates with APO; assay type: cell-based; conditions: Homo sapiens; H2981 cells untreated with any conjugate
Method: The in vitro cytotoxic effect of the antibody-PVA/ adriamycin prodrug combination of the invention toward H2981 tumor cells was measured using the ^3H-thymidine uptake assay described in Examples 1 and 2 above. Briefly, the H2981 tumor cells were plated into 96-well microtiter plates in IMDM (10,000 cells/well) and were allowed to attached for 18 h at 37°C. The antibody-PVA conjugates, L6-PVA or 1F5-PVA, were then added at a concentration of 10 µg/ml of antibody and the plates were incubated for 30 min at 4°C. The wells were then washed four times with IMDM and APO was added at varying concentrations in IMDM. After two h, the wells were again washed, IMDM was added and the cells were left for 18 h at 37°C. At that point, ^3H-thymidine was added (1 µCi per well) and after 6 h, the plates were frozen at -70°C to detach the cells. After thawing, the cells were harvested onto glass fiber filters. The incorporation of ^3H-thymidine was measured in a Beckman 3801 scintillation counter and compared to cells treated with APO or adriamycin (ADM) alone.

Daudi cells = test: 3H-thymidine assay on Daudi cells, PVA conjugates with APO; assay type: cell-based; conditions: Figure 25
Method: The ^3H-thymidine assay was performed essentially as described in the examples above with slight modifications due to the fact that the Daudi cells are non-adherent. Thus, approximately 250,000 Daudi cells in IMDM were plated into each well of a 96-well microtiter plate and the antibody-enzyme conjugate added. The reaction mixture was incubated at 4°C for 30 min. Unbound antibody-enzyme conjugate was removed by centrifuging at 500 x g for 5 min and removing the supernatant. The cells were resuspended in IMDM and the washing procedure was repeated three times to remove all unbound conjugate. APO in IMDM was then added for 2 h and washed once as described above. The remainder of the assay was performed as described in the examples above.

Structure (SMILES): COc1cccc2c1C(=O)c1c(O)c3c(c(O)c1C2=O)C[C@@](O)(C(=O)CO)C[C@@H]3O[C@H]1C[C@H](N)[C@H](O)[C@H](C)O1 [adriamycin, reference compound]
- pIC50 (H2981 tumor cells): 7.42
- cytotoxicity on Daudi cells (Daudi cells): significantly more toxic than APO
